Holding throughout (assay type): cell-based
In one assay the test system is Ba/F3-EGFR WT cells. Briefly: Cell proliferation suppression test (CellTiter-Glo, GI50), Ba/F3-EGFR WT. The following applies: Mus musculus, 72 h, 100 ng/mL EGF, 3 days, N=4. Here is the method:
(§1) Cell proliferation suppression test Ba/F3-Mock, Ba/F3-EGFR WT, Ba/F3-EGFR ins. ASV, and Ba/F3-EGFR ins. SVD cell lines were cultured based on a culture medium of 10% FBS-containing RPMI 1640 supplemented with 1.5 ug/mL puromycin, and 5 ng/mL IL-3 and 100 ng/mL of EGF were further added to the culture solution for Ba/F3-Mock and Ba/F3-EGFR WT, respectively. The cells were cultured in a CO2 incubator set at 37° C., 5% CO2. Specimens prepared by dilution were seeded into 384-well tissue culture plates with Echo555 (Labcyte Inc.), and the cells were seeded thereto at 400 cells/well for Ba/F3-Mock, Ba/F3-EGFR WT, and Ba/F3-EGFR ins. SVD and at 200 cells/well for Ba/F3-EGFR ins. ASV (day 0), then they were cultured for an additional 3 days. On the day of the compound addition (day 0) and 3 days after the compound addition (day 3), ATP quantity was measured with CellTiter-Glo (registered trademark) 2.0 (Promega Corporation.), and used as an indicator of cell quantity (N=4). In the test, puromycin-free culture medium was used. Concentrations at which cell proliferation from day 0 to day 3 was inhibited by 50% (GIso) were calculated with EXCEL.
In general terms: In ATP-based viability assays light output follows the ATP content of the culture.

The subject of the next assay is Ba/F3-Mock cells. Kind of assay: Cell proliferation suppression test (CellTiter-Glo, GI50), Ba/F3-Mock. As to conditions: Mus musculus, BaF3, 72 h, 5 ng/mL IL-3, 3 days, N=4. Here is the method:
as §1

Assay [1] deals with Ba/F3-EGFR ins. SVD cells. Kind of assay: Cell proliferation suppression test (CellTiter-Glo, GI50), Ba/F3-EGFR ins. SVD. As to conditions: Mus musculus, 72 h, 3 days, N=4. The protocol:
as §1

The test system of assay [2] is Ba/F3-EGFR ins. ASV cells. Kind of assay: Cell proliferation suppression test (CellTiter-Glo, GI50), Ba/F3-EGFR ins. ASV. As to conditions: Mus musculus, 72 h, 3 days, N=4. The protocol:
as §1

The GI50 is the concentration giving 50% growth inhibition. Lower therefore signals greater sensitivity of the cells. Consider `C=CC(=O)N1CCC(Oc2cc3c(Nc4cc(F)c(Oc5ccn(C(=O)NC(C)(C)C)n5)cc4F)ncnc3cc2OC)CC1` [Example 7, N-tert-Butyl-3-{2,5-difluoro-4-[(7-methoxy-6-{[1-(prop-2-enoyl)piperidin-4-yl]oxy}quinazolin-4-yl)amino]phenoxy}-1H-pyrazole-1-carboxamide], for which the GI50 amounted to 191 nM in the assay with Ba/F3-EGFR WT cells, 5900 nM in the assay on Ba/F3-Mock cells, 19.6 nM in assay [1] and 39.4 nM in assay [2].

Consider `C=CC(=O)N1CCC(Oc2cc3c(Nc4ccc(Oc5cccc(-c6cn(C)nn6)c5)cc4Cl)ncnc3cc2OC)CC1` [Example 3, 1-{4-[(4-{2-Chloro-4-[3-(1-methyl-1H-1,2,3-triazol-4-yl)phenoxy]anilino}-7-methoxyquinazolin-6-yl)oxy]piperidin-1-yl}prop-2-en-1-one], for which the GI50 worked out at 370 nM in the assay with Ba/F3-EGFR WT cells, 9930 nM in the assay on Ba/F3-Mock cells, 30 nM in assay [1] and 40.6 nM in assay [2].

Consider `C=CC(=O)N1CCC(Oc2cc3c(Nc4ccc(Oc5nc(-c6cncc(F)c6)cs5)cc4F)ncnc3cc2OC)CC1` [Example 38, 1-(4-{[4-(2-Fluoro-4-{[4-(5-fluoropyridin-3-yl)-1,3-thiazol-2-yl]oxy}anilino)-7-methoxyquinazolin-6-yl]oxy}piperidin-1-yl)prop-2-en-1-one], for which the GI50 is 174 nM with Ba/F3-EGFR WT cells, above 10000 nM with Ba/F3-Mock cells, 18.3 nM in assay [1] and 17 nM in assay [2].

Consider `C=CC(=O)N1CCC(Oc2cc3c(Nc4ccc(Oc5ccn(-c6ccc(F)nc6)n5)cc4F)ncnc3cc2OC)CC1` [Example 32], for which the concentration for 50% growth inhibition (GI50) is 162 nM with Ba/F3-EGFR WT cells, above 10000 nM in the assay on Ba/F3-Mock cells, 12.7 nM in assay [1] and 11.9 nM in assay [2].

As for `C=CC(=O)N1CCC(Oc2cc3c(Nc4ccc(Oc5cccc(-c6nnc(C)o6)c5)cc4Cl)ncnc3cc2OC)CC1` [Example 13, 1-{4-[(4-{2-Chloro-4-[3-(5-methyl-1,3,4-oxadiazol-2-yl)phenoxy]anilino}-7-methoxyquinazolin-6-yl)oxy]piperidin-1-yl}prop-2-en-1-one], the GI50 in the assay with Ba/F3-EGFR WT cells came out at 854 nM; in the assay with Ba/F3-Mock cells, 8280 nM; in assay [1], 54.1 nM; in assay [2] it was 44.5 nM.

As for `CCOc1cc2ncnc(Nc3ccc(Oc4cccc(-c5nnc(C6CC6)o5)c4)cc3F)c2cc1NC(=O)/C=C/CN(C)C` [Example 51, (2E)-N-(4-{4-[3-(5-Cyclopropyl-1,3,4-oxadiazol-2-yl)phenoxy]-2-fluoroanilino}-7-ethoxyquinazolin-6-yl)-4-(dimethylamino)but-2-enamide], the GI50 with Ba/F3-EGFR WT cells is 104 nM; in the assay on Ba/F3-Mock cells, 806 nM; in assay [1] it was 20.5 nM; in assay [2], 11.8 nM.

For the compound `C=CC(=O)N1CCC(Oc2cc3c(Nc4ccc(Oc5ccn(C(=O)NC(C)(CF)CF)n5)cc4F)ncnc3cc2OC)CC1` [Example 23, N-(1,3-Difluoro-2-methylpropan-2-yl)-3-{3-fluoro-4-[(7-methoxy-6-{[1-(prop-2-enoyl)piperidin-4-yl]oxy}quinazolin-4-yl)amino]phenoxy}-1H-pyrazole-1-carboxamide], the GI50 in the assay with Ba/F3-EGFR WT cells was determined as 110 nM; in the assay with Ba/F3-Mock cells, 5530 nM; in assay [1], 10.9 nM; in assay [2], 12.4 nM.

For `C=CC(=O)N1CCC(Oc2cc3c(Nc4ccc(Oc5cccc(-c6nnc(C)o6)c5)cc4F)ncnc3cc2OCF)CC1` [Example 19, 1-(4-{[7-(Fluoromethoxy)-4-{2-fluoro-4-[3-(5-methyl-1,3,4-oxadiazol-2-yl)phenoxy]anilino}quinazolin-6-yl]oxy}piperidin-1-yl)prop-2-en-1-one], the concentration for 50% growth inhibition (GI50) in the assay with Ba/F3-EGFR WT cells worked out at 386 nM; with Ba/F3-Mock cells it was 4920 nM; in assay [1], 20.2 nM; in assay [2], 23.5 nM.

`C=CC(=O)N1CCC(Oc2cc3c(Nc4ccc(Oc5nc(-c6cnc(OC)nc6)cs5)cc4F)ncnc3cc2OC)CC1` [Example 16, 1-(4-{[4-(2-Fluoro-4-{[4-(2-methoxypyrimidin-5-yl)-1,3-thiazol-2-yl]oxy}anilino)-7-methoxyquinazolin-6-yl]oxy}piperidin-1-yl)prop-2-en-1-one]: the GI50 is 320 nM in the assay with Ba/F3-EGFR WT cells, above 10000 nM in the assay with Ba/F3-Mock cells, 11.3 nM in assay [1] and 11.4 nM in assay [2].

For `COc1cc2ncnc(Nc3ccc(Oc4nn(CC(=O)NC(C)(C)C)cc4F)cc3Cl)c2cc1NC(=O)/C=C/CN1CCOCC1` [Example 54, (2E)-N-{4-[4-({1-[2-(tert-Butylamino)-2-oxoethyl]-4-fluoro-1H-pyrazol-3-yl}oxy)-2-chloroanilino]-7-methoxyquinazolin-6-yl}-4-(morpholin-4-yl)but-2-enamide], the 50% growth inhibitory concentration (GI50) was 2890 nM in the assay with Ba/F3-EGFR WT cells, above 10000 nM in the assay on Ba/F3-Mock cells, 50.6 nM in assay [1] and 33.4 nM in assay [2].

With `C=CC(=O)N1CCC(Oc2cc3c(Nc4ccc(Oc5ccn(C(=O)N[C@H](C)C(F)(F)F)n5)cc4F)ncnc3cc2OC)CC1` [Example 24, 3-{3-Fluoro-4-[(7-methoxy-6-{[1-(prop-2-enoyl)piperidin-4-yl]oxy}quinazolin-4-yl)amino]phenoxy}-N-[(2R)-1,1,1-trifluoropropan-2-yl]-1H-pyrazole-1-carboxamide], the GI50 in the assay on Ba/F3-EGFR WT cells stood at 42.4 nM; in the assay with Ba/F3-Mock cells it was 6470 nM; in assay [1] it was 9.9 nM; in assay [2], 11.8 nM.

Take `C=CC(=O)N1CCC(Oc2cc3c(Nc4ccc(Oc5ccn(-c6cnc(C)c(F)c6)n5)cc4F)ncnc3cc2OC)CC1` [Example 27, 1-(4-{[4-(2-Fluoro-4-{[1-(5-fluoro-6-methylpyridin-3-yl)-1H-pyrazol-3-yl]oxy}anilino)-7-methoxyquinazolin-6-yl]oxy}piperidin-1-yl)prop-2-en-1-one]: the concentration for 50% growth inhibition (GI50) in the assay with Ba/F3-EGFR WT cells was 249 nM; with Ba/F3-Mock cells it was 8690 nM; in assay [1], 11.1 nM; in assay [2], 11.6 nM.

For `C=CC(=O)N1CCC(Oc2cc3c(Nc4ccc(Oc5cccc(-c6cn(C)nn6)c5)cc4F)ncnc3cc2OC)CC1` [Example 2], the GI50 with Ba/F3-EGFR WT cells came out at 123 nM; in the assay on Ba/F3-Mock cells, 9530 nM; in assay [1], 13.7 nM; in assay [2], 13.9 nM.

Turning to `C=CC(=O)N1CCC(Oc2cc3c(Nc4ccc(Oc5nc(-c6ccc(CC)nc6)cs5)cc4F)ncnc3cc2OC)CC1` [Example 34, 1-(4-{[4-(4-{[4-(6-Ethylpyridin-3-yl)-1,3-thiazol-2-yl]oxy}-2-fluoroanilino)-7-methoxyquinazolin-6-yl]oxy}piperidin-1-yl)prop-2-en-1-one], the GI50 was 276 nM in the assay on Ba/F3-EGFR WT cells, above 10000 nM with Ba/F3-Mock cells, 13.7 nM in assay [1] and 20.5 nM in assay [2].

`COc1cc2ncnc(Nc3ccc(Oc4cccc(-c5nnc(C)s5)c4)cc3F)c2cc1NC(=O)/C=C/CN(C)C` [Example 44, (2E)-4-(Dimethylamino)-N-(4-{2-fluoro-4-[3-(5-methyl-1,3,4-thiadiazol-2-yl)phenoxy]anilino}-7-methoxyquinazolin-6-yl)but-2-enamide]: the GI50 was 167 nM in the assay with Ba/F3-EGFR WT cells, 724 nM in the assay with Ba/F3-Mock cells, 52.2 nM in assay [1] and 15.5 nM in assay [2].

Consider `[2H]C([2H])([2H])C(NC(=O)n1ccc(Oc2ccc(Nc3ncnc4cc(OC)c(OC5CCN(C(=O)C=C)CC5)cc34)c(F)c2)n1)(C([2H])([2H])[2H])C([2H])([2H])[2H]` [Example 25, 3-{3-Fluoro-4-[(7-methoxy-6-{[1-(prop-2-enoyl)piperidin-4-yl]oxy}quinazolin-4-yl)amino]phenoxy}-N-[2-(^2H3)methyl(^2H6)propan-2-yl]-1H-pyrazole-1-carboxamide], for which the GI50 in the assay with Ba/F3-EGFR WT cells was 180 nM; in the assay on Ba/F3-Mock cells it was above 10000 nM; in assay [1], 12.4 nM; in assay [2], 18.8 nM.

`C=CC(=O)N1CCC(Oc2cc3c(Nc4ccc(Oc5ccn(-c6cnc(C7CC7)nc6)n5)cc4F)ncnc3cc2OC)CC1` [Example 10, 1-(4-{[4-(4-{[1-(2-cyclopropylpyrimidin-5-yl)-1H-pyrazol-3-yl]oxy}-2-fluoroanilino)-7-methoxyquinazolin-6-yl]oxy}piperidin-1-yl)prop-2-en-1-one]: the GI50 turned out to be 212 nM in the assay with Ba/F3-EGFR WT cells, 6170 nM in the assay with Ba/F3-Mock cells, 7.6 nM in assay [1] and 11.9 nM in assay [2].

As for `C=CC(=O)N1CCC(Oc2cc3c(Nc4ccc(Oc5ccn(C(=O)NC6(C)CC6)n5)cc4F)ncnc3cc2OC)CC1` [Example 8, 3-{3-Fluoro-4-[(7-methoxy-6-{[1-(prop-2-enoyl)piperidin-4-yl]oxy}quinazolin-4-yl)amino]phenoxy}-N-(1-methylcyclopropyl)-1H-pyrazole-1-carboxamide], the concentration for 50% growth inhibition (GI50) in the assay with Ba/F3-EGFR WT cells is 172 nM; in the assay on Ba/F3-Mock cells it was 7160 nM; in assay [1], 19.7 nM; in assay [2] it was 19.8 nM.

The values are drawn from US20230025510A1, “BIARYL ETHER-TYPE QUINAZOLINE DERIVATIVES” (DAIICHI SANKYO COMPANY, LIMITED, priority 2018, published 2023).
